JP2007509054A, “血管健康を促進するシリルフェノール” (Amylin Pharmaceuticals LLC, priority 2003, dated 2005)

Tests used:
[1] = Serum antioxidant activity in rats fed AC3056 in the diet; type: in vivo, rat; details: rats fed a diet containing AC3056
[2] = system: serum lipids (血清脂質); assay: Ex vivo copper-induced lipid peroxidation of serum lipids (lag phase), rabbits fed compound for 70 days; type: in vivo; details: rabbit, Fig. 1
[3] = Serum concentration in rats fed AC3056 in the diet; type: in vivo, rat; details: rats fed a diet containing AC3056
[4] = system: carotid artery (頚動脈); assay: Mechanical carotid injury model in ApoE-/- mice: quantitative morphometry; type: in vivo, mouse; details: ApoE-/- male mice, high-fat diet with 1.25% cholesterol, treated 18 h before and daily for 28 days after injury, Fig. 7
[5] = system: leukocyte recruitment (白血球動員); assay: Mechanical carotid injury model in ApoE-/- mice: CD45-positive cells / leukocyte recruitment; type: in vivo, mouse; details: ApoE-/- male mice, treated 18 h before and daily for 28 days after injury, Fig. 8
[6] = system: VCAM-1 (VCAM−1); assay: Cytokine (TNF-α) induced VCAM-1 expression in human umbilical vein endothelial cells (HUVEC); type: cell-based; details: Fig. 2
[7] = system: VCAM-1 (VCAM−1); assay: IL-4 induced VCAM-1 expression in human coronary artery smooth muscle cells (CASMC); type: cell-based; details: IL-4 100 nmol/L, Fig. 2

Structure (SMILES): COc1ccc([Si](C)(C)COc2cc(C(C)(C)C)c(O)c(C(C)(C)C)c2)cc1 [AC3056]
- antioxidant activity in serum [1]: 血清中の抗酸化活性の増加
- increase in lag phase versus serum concentration [2]: 血清濃度に比例する
- mean serum concentration [3]: 17700 ng/mL
- intima/media ratio [4]: 内膜/中膜の比が低下する
- mean lumen thickness [4]: 平均の内腔厚みが増加する
- mean neointimal thickness [4]: 平均の新血管内膜の厚みが低下する
- leukocyte recruitment to the neointimal space after vascular injury (CD45-positive cells) [5]: 白血球動員を阻害する

Structure (SMILES): CC(C)(Sc1cc(C(C)(C)C)c(O)c(C(C)(C)C)c1)Sc1cc(C(C)(C)C)c(O)c(C(C)(C)C)c1 [プロブコール]
- inhibition of cytokine-induced (TNF-α) VCAM-1 expression [6]: 同様の濃度範囲にて有効ではない
- inhibition of IL-4 induced VCAM-1 expression [7]: 本発明の化合物より一般的に有効ではない
